Source: patent US20230021365A1, “COMPOSITION COMPRISING P53-ACTIVATING PEPTIDE” (SUPADELIXIR INC., priority 2019, published 2023)

system: interaction between p53 and POLII; test: in situ PLA (proximity ligation assay) of physical binding between p53 and RNA Polymerase II (POLII) in HaCaT cells; assay type: cell-based, human; details: summary statement in the description
Description: After treating cells with the peptides of the present invention, the effects thereof on the physical binding between p53 and RNA Polymerase II (POLII) were evaluated through an in situ PLA (proximity ligation assay) method. HaCaT cells (human keratinocytes, CLS) were added at 4.5×10^4 cells per well, along with a DMEM containing 10% fetal bovine serum, to each well of a 24-well microplate and then cultured at 37° C. in a 5% CO2 incubator for 24 hours. The peptide solutions of Example 2 were added thereto so that the concentration of each peptide in the medium was 20 μM, followed by incubating for 1 hour under the same condition. […] The cells of each well were washed with PBS, fixed by treating with 2% formaldehyde for 15 minutes, and then treated with 0.1% TritonX-100 for 5 minutes to increase antibody permeability into the cells. Anti-p53 polyclonal antibody (Abcam, UK) and anti-POLII polyclonal antibody (Santa Cruz, Calif., USA) were added thereto. After the PLA probe was added thereto using the in situ PLA kit (Sigma-Aldrich), hybridization, ligation, amplification and mounting steps were carried out according to the manufacturer's protocol. Each physical interaction between p53 and POLII was quantified by measuring the luminescence signals (PLA signals) detected in each cell with a confocal laser microscope (Olympus fluoview FW1000; Olympus, Tokyo, Japan).

| Substance | activity in decreasing the interaction between p53 and MDM2 and thus increasing the interaction between p53 and POLII |
| --- | --- |
| Leu-Ala-Asp (LAD) [Pep 4] | particularly excellent activity |
| Leu-Arg-Asp (LRD) [Pep 6] | particularly excellent activity |
| Leu-Gly-Asp (LGD) [Pep 3] | particularly excellent activity |
| Leu-Lys-Asp (LKD) [Pep 7] | particularly excellent activity |
| Leu-Ser-Asp (LSD) [Pep 2] | particularly excellent activity |
| Leu-Thr-Asp (LTD) [Pep 18] | particularly excellent activity |
| Leu-Tyr-Asp (LYD) [Pep 9] | particularly excellent activity |
